Active and inactive are the calls of the source.
Tests used:
[1] = Toxicity in BALB/c nude mouse xenografted with human Lenvatinib-resistant Huh7/Len cells assessed as changes in organ index at 3 mg/kg, IG administered 5 times per week for 3 weeks; type: organism-based; conditions: in vivo, po, 504 h
[2] = tested on: Lenvatinib-resistant Huh7/Len; assay: Inhibition of cell migration in human Lenvatinib-resistant Huh-7/Len cells at 5 uM incubated for 48 hrs in presence of lobeline by transwell assay relative to control; type: functional
[3] = tested on: Lenvatinib-resistant Huh7/Len; assay: Induction of apoptosis in human Lenvatinib-resistant Huh7/Len cells xenografted in BALB/c nude mouse assessed as apoptotic cells in tumor tissue at 3 mg/kg, IG cotreated with lobeline 5 times per week for 3 weeks by immunohistochemistry analysis; type: functional, organism-based
[4] = Toxicity in BALB/c nude mouse PDX model xenografted with human Lenvatinib-resistant HCC/Len cells assessed as changes in body weight at 3 mg/kg, IG administered 5 times per week for 3 weeks; type: organism-based; conditions: in vivo, po, 504 h
[5] = tested on: Lenvatinib-resistant HCC/Len; assay: Antitumor activity against human Lenvatinib-resistant HCC/Len cells xenografted in BALB/c nude mouse model of PDX assessed as reduction in Ki-67 protein expression tumor tissue at 3 mg/kg, IG cotreated with lobeline 5 times per week for 3 weeks by immunohistochemistry analysis; type: functional, organism-based
[6] = tested on: Lenvatinib-resistant Hep3B/Len; assay: Inhibition of cell migration in human Lenvatinib-resistant Hep3B/Len cells at 5 uM incubated for 48 hrs in presence of lobeline by transwell assay relative to control; type: functional
[7] = tested on: Lenvatinib-resistant Huh7/Len; assay: Antitumor activity against human Lenvatinib-resistant Huh7/Len cells xenografted in BALB/c nude mouse assessed as tumor growth inhibition at 3 mg/kg, IG cotreated with lobeline 5 times per week for 3 weeks; type: functional, organism-based
[8] = tested on: Lenvatinib-resistant Hep3B/Len; assay: Antiproliferative activity against human Lenvatinib-resistant Hep3B/Len cells assessed as inhibition of cell viability up to 40 uM after 72 hrs in presence of lobeline by CCK-8 assay; type: functional, cell-based
[9] = tested on: Lenvatinib-resistant Huh7/Len; assay: Antiproliferative activity against human Lenvatinib-resistant Huh7/Len cells assessed as inhibition of clone formation ability at 5 to 10 uM preincubated for 72 hrs and measured after 7 to 10 days by crystal violet staining based assay; type: functional, cell-based; conditions: dose 5-10 µM, time 10-13 day
[10] = tested on: Lenvatinib-resistant HCC/Len; assay: Antitumor activity against human Lenvatinib-resistant HCC/Len cells xenografted in BALB/c nude mouse model of PDX assessed as reduction in m6A protein expression tumor tissue at 3 mg/kg, IG cotreated with lobeline 5 times per week for 3 weeks by immunohistochemistry analysis; type: functional, organism-based
[11] = Toxicity in BALB/c nude mouse xenografted with human Lenvatinib-resistant Huh7/Len cells assessed as changes in organ index at 3 mg/kg, IG cotreated with lobeline 5 times per week for 3 weeks; type: organism-based; conditions: in vivo, po, 504 h
[12] = Toxicity in BALB/c nude mouse xenografted with human Lenvatinib-resistant Huh7/Len cells assessed as changes in body weight at 3 mg/kg, IG administered 5 times per week for 3 weeks; type: organism-based; conditions: in vivo, po, 504 h
[13] = tested on: Lenvatinib-resistant Huh7/Len; assay: Antitumor activity against human Lenvatinib-resistant Huh7/Len cells xenografted in BALB/c nude mouse assessed as inhibition of tumor volume at 3 mg/kg, IG cotreated with lobeline 5 times per week for 3 weeks relative to control; type: functional; conditions: po, 504 h
[14] = tested on: Lenvatinib-resistant Hep3B/Len; assay: Inhibition of cell migration in human Lenvatinib-resistant Hep3B/Len cells at 5 uM incubated for 48 hrs by transwell assay; type: functional, cell-based
[15] = Toxicity in BALB/c nude mouse xenografted with human Lenvatinib-resistant Huh7/Len cells assessed as changes in body weight at 3 mg/kg, IG cotreated with lobeline 5 times per week for 3 weeks; type: organism-based; conditions: in vivo, po, 504 h
[16] = tested on: Lenvatinib-resistant Hep3B/Len; assay: Antiproliferative activity against human Lenvatinib-resistant Hep3B/Len cells assessed as inhibition of clone formation ability at 5 to 10 uM preincubated for 72 hrs and measured after 7 to 10 days by crystal violet staining based assay; type: functional, cell-based; conditions: dose 5-10 µM, time 10-13 day
[17] = tested on: Lenvatinib-resistant HCC/Len; assay: Antitumor activity against human Lenvatinib-resistant HCC/Len cells xenografted in BALB/c nude mouse model of PDX assessed as tumor growth inhibition at 3 mg/kg, IG cotreated with lobeline 5 times per week for 3 weeks; type: functional, organism-based
[18] = Toxicity in BALB/c nude mouse PDX model xenografted with human Lenvatinib-resistant HCC/Len cells assessed as changes in organ index at 3 mg/kg, IG administered 5 times per week for 3 weeks; type: organism-based; conditions: in vivo, po, 504 h
[19] = Toxicity in BALB/c nude mouse PDX model xenografted with human Lenvatinib-resistant HCC/Len cells assessed as changes in organ index at 3 mg/kg, IG cotreated with lobeline 5 times per week for 3 weeks administered 5 times per week for 3 weeks; type: organism-based; conditions: in vivo, po, 504 h
[20] = tested on: Lenvatinib-resistant Hep3B/Len; assay: Antiproliferative activity against human Lenvatinib-resistant Hep3B/Len cells assessed as inhibition of clone formation ability at 5 to 10 uM preincubated for 72 hrs and measured after 7 to 10 days in presence of lobeline by crystal violet staining based assay; type: functional, cell-based; conditions: dose 5-10 µM, time 10-13 day
[21] = Toxicity in BALB/c nude mouse PDX model xenografted with human Lenvatinib-resistant HCC/Len cells assessed as changes in body weight at 3 mg/kg, IG cotreated with lobeline 5 times per week for 3 weeks administered 5 times per week for 3 weeks; type: organism-based; conditions: in vivo, po, 504 h
[22] = tested on: Lenvatinib-resistant HCC/Len; assay: Antitumor activity against human Lenvatinib-resistant HCC/Len cells xenografted in BALB/c nude mouse model of PDX assessed as inhibition of tumor volume at 3 mg/kg, IG cotreated with lobeline 5 times per week for 3 weeks relative to control; type: functional; conditions: po, 504 h
[23] = tested on: Lenvatinib-resistant Huh7/Len; assay: Inhibition of cell migration in human Lenvatinib-resistant Huh7/Len cells at 5 uM incubated for 48 hrs by transwell assay; type: functional, cell-based
[24] = tested on: Lenvatinib-resistant Huh7/Len; assay: Antiproliferative activity against human Lenvatinib-resistant Huh7/Len cells assessed as inhibition of clone formation ability at 5 to 10 uM preincubated for 72 hrs and measured after 7 to 10 days in presence of lobeline by crystal violet staining based assay; type: functional, cell-based; conditions: dose 5-10 µM, time 10-13 day
[25] = tested on: Lenvatinib-resistant Huh7/Len; assay: Antiproliferative activity against human Lenvatinib-resistant Huh7/Len cells assessed as inhibition of cell viability up to 40 uM after 72 hrs in presence of lobeline by CCK-8 assay; type: functional, cell-based
[26] = tested on: Lenvatinib-resistant Huh7/Len; assay: Antitumor activity against human Lenvatinib-resistant Huh7/Len cells xenografted in BALB/c nude mouse assessed as reduction in Ki-67 protein expression tumor tissue at 3 mg/kg, IG cotreated with lobeline 5 times per week for 3 weeks by immunohistochemistry analysis; type: functional; design: scale not given: the % may be the effect or the level left
[27] = molecular target: N6-adenosine-methyltransferase catalytic subunit (Homo sapiens) (UniProt Q86U44); assay: Inhibition of METTL3 in human Lenvatinib-resistant Huh7/Len cells assessed as effect on CTSL mRNA expression level at 2 uM incubated for 72 hrs by RT-PCR analysis; type: cell-based
Sequence of N6-adenosine-methyltransferase catalytic subunit (Homo sapiens) (Q86U44 whole entry): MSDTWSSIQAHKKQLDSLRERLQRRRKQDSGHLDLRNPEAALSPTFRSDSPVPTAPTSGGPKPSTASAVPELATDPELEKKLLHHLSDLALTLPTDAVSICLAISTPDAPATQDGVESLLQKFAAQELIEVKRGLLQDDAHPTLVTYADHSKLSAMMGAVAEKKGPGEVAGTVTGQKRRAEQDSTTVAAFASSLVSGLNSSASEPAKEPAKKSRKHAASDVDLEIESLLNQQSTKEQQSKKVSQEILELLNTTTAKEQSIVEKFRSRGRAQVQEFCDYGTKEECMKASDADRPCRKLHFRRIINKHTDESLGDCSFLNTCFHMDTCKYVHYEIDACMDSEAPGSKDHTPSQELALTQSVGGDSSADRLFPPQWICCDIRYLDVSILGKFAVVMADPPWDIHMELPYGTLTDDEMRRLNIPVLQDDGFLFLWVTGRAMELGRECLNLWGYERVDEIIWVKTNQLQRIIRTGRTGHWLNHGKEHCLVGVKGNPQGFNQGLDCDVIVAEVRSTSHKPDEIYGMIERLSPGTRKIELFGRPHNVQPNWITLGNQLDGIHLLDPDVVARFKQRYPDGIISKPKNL

[28] = molecular target: N6-adenosine-methyltransferase catalytic subunit (Homo sapiens) (UniProt Q86U44); assay: Inhibition of METTL3 in human Lenvatinib-resistant Huh7/Len cells assessed as effect on AKT1 mRNA expression level at 2 uM incubated for 72 hrs by RT-PCR analysis; type: cell-based
[29] = molecular target: N6-adenosine-methyltransferase catalytic subunit (Homo sapiens) (UniProt Q86U44); assay: Inhibition of METTL3 in human Lenvatinib-resistant Huh7/Len cells assessed as effect on DEK mRNA expression level at 2 uM incubated for 72 hrs by RT-PCR analysis; type: cell-based
[30] = molecular target: N6-adenosine-methyltransferase catalytic subunit (Homo sapiens) (UniProt Q86U44); assay: Inhibition of METTL3 in human Lenvatinib-resistant Huh7/Len cells assessed as effect on GATA3 mRNA expression level at 2 uM incubated for 72 hrs by RT-PCR analysis; type: cell-based
[31] = molecular target: N6-adenosine-methyltransferase catalytic subunit (Homo sapiens) (UniProt Q86U44); assay: Inhibition of METTL3 in human Lenvatinib-resistant Huh7/Len cells assessed as effect on MYC mRNA expression level at 2 uM incubated for 72 hrs by RT-PCR analysis; type: cell-based
[32] = molecular target: N6-adenosine-methyltransferase catalytic subunit (Homo sapiens) (UniProt Q86U44); assay: Inhibition of METTL3 in human Lenvatinib-resistant Huh7/Len cells assessed as effect on IFIT2 mRNA expression level at 2 uM incubated for 72 hrs by RT-PCR analysis; type: cell-based
[33] = molecular target: N6-adenosine-methyltransferase catalytic subunit (Homo sapiens) (UniProt Q86U44); assay: Inhibition of METTL3 in human Huh-7 cells assessed as down regulation of m6A RNA level at 2 uM incubated for 72 hrs by colorimetric analysis; type: cell-based
[34] = molecular target: N6-adenosine-methyltransferase catalytic subunit (Homo sapiens) (UniProt Q86U44); assay: Inhibition of METTL3 in human Lenvatinib-resistant Huh7/Len cells assessed as effect on HNF4A mRNA expression level at 2 uM incubated for 72 hrs by RT-PCR analysis; type: cell-based
[35] = molecular target: N6-adenosine-methyltransferase catalytic subunit (Homo sapiens) (UniProt Q86U44); assay: Inhibition of METTL3 in human Lenvatinib-resistant Huh7/Len cells assessed as effect on MMP3 mRNA expression level at 2 uM incubated for 72 hrs by RT-PCR analysis; type: cell-based
[36] = molecular target: N6-adenosine-methyltransferase catalytic subunit (Homo sapiens) (UniProt Q86U44); assay: Inhibition of METTL3 in human Lenvatinib-resistant Huh7/Len cells assessed as effect on UCK2 mRNA expression level at 2 uM incubated for 72 hrs by RT-PCR analysis; type: cell-based
[37] = molecular target: N6-adenosine-methyltransferase catalytic subunit (Homo sapiens) (UniProt Q86U44); assay: Inhibition of METTL3 in human Lenvatinib-resistant Huh7/Len cells assessed as effect on TET1 mRNA expression level at 2 uM incubated for 72 hrs by RT-PCR analysis; type: cell-based
[38] = molecular target: N6-adenosine-methyltransferase catalytic subunit (Homo sapiens) (UniProt Q86U44); assay: Inhibition of METTL3 in human Lenvatinib-resistant Huh7/Len cells assessed as effect on MMP13 mRNA expression level at 2 uM incubated for 72 hrs by RT-PCR analysis; type: cell-based
[39] = molecular target: N6-adenosine-methyltransferase catalytic subunit (Homo sapiens) (UniProt Q86U44); assay: Inhibition of METTL3 in human Lenvatinib-resistant Huh7/Len cells assessed as effect on EZH2 mRNA expression level at 2 uM incubated for 72 hrs by RT-PCR analysis; type: cell-based
[40] = molecular target: N6-adenosine-methyltransferase catalytic subunit (Homo sapiens) (UniProt Q86U44); assay: Inhibition of METTL3 in human Lenvatinib-resistant Huh7/Len cells assessed as effect on NPCL1 mRNA expression level at 2 uM incubated for 72 hrs by RT-PCR analysis; type: cell-based
[41] = molecular target: N6-adenosine-methyltransferase catalytic subunit (Homo sapiens) (UniProt Q86U44); assay: Inhibition of METTL3 in human Lenvatinib-resistant Huh7/Len cells assessed as effect on SLC7A11 mRNA expression level at 2 uM incubated for 72 hrs by RT-PCR analysis; type: cell-based
[42] = molecular target: N6-adenosine-methyltransferase catalytic subunit (Homo sapiens) (UniProt Q86U44); assay: Inhibition of METTL3 in human Lenvatinib-resistant Huh7/Len cells assessed as effect on FGFR3 mRNA expression level at 2 uM incubated for 72 hrs by RT-PCR analysis; type: cell-based
[43] = molecular target: N6-adenosine-methyltransferase catalytic subunit (Homo sapiens) (UniProt Q86U44); assay: Inhibition of METTL3 in human Lenvatinib-resistant Huh7/Len cells assessed as effect on TIBIM6 mRNA expression level at 2 uM incubated for 72 hrs by RT-PCR analysis; type: cell-based
[44] = molecular target: N6-adenosine-methyltransferase catalytic subunit (Homo sapiens) (UniProt Q86U44); assay: Inhibition of METTL3 in human Lenvatinib-resistant Huh7/Len cells assessed as effect on CRB3 mRNA expression level at 2 uM incubated for 72 hrs by RT-PCR analysis; type: cell-based
[45] = molecular target: N6-adenosine-methyltransferase catalytic subunit (Homo sapiens) (UniProt Q86U44); assay: Inhibition of METTL3 in human Lenvatinib-resistant Huh7/Len cells assessed as effect on LATS1 mRNA expression level at 2 uM incubated for 72 hrs by RT-PCR analysis; type: cell-based
[46] = molecular target: N6-adenosine-methyltransferase catalytic subunit (Homo sapiens) (UniProt Q86U44); assay: Inhibition of METTL3 in human Lenvatinib-resistant Huh7/Len cells assessed as effect on ADAMTS9 mRNA expression level at 2 uM incubated for 72 hrs by RT-PCR analysis; type: cell-based
[47] = molecular target: N6-adenosine-methyltransferase catalytic subunit (Homo sapiens) (UniProt Q86U44); assay: Inhibition of METTL3 in human Lenvatinib-resistant Huh7/Len cells assessed as effect on IFFO1 mRNA expression level at 2 uM incubated for 72 hrs by RT-PCR analysis; type: cell-based

COc1cc2nccc(Oc3ccc(NC(=O)NC4CC4)c(Cl)c3)c2cc1C(N)=O [LENVATINIB]
Non-Toxic: Activity [1] | Activity [4] | Activity [11] | Activity [12] | Activity [15] | Activity [18] | Activity [19] | Activity [21]
68%: inhibition in vivo at 3 mg/kg [13]
60%: inhibition in vivo at 3 mg/kg [22]
30%: Activity [26]
active: Activity [3] | Activity [5] | TGI [7] | inhibition [8] | Activity [10] | TGI [17] | inhibition [25]
42%: inhibition at 5 µM [2] | inhibition at 5 µM [6]
inactive: inhibition [9] | inhibition [14] | inhibition [16] | inhibition [20] | inhibition [23] | inhibition [24]

O=C(NCc1cn2cc(CNCC3CCCCC3)ccc2n1)c1cc(=O)n2ccccc2n1
18%: inhibition [33]
active: inhibition [27] | inhibition [28] | inhibition [29] | inhibition [30] | inhibition [31] | inhibition [32] | inhibition [34] | inhibition [35] | inhibition [36] | inhibition [37] | inhibition [38] | inhibition [39] | inhibition [40] | inhibition [41] | inhibition [42] | inhibition [43] | inhibition [44] | inhibition [45] | inhibition [46] | inhibition [47]
